Data published in patent US20040013696A1, “Use of ellagic acid as an anti-pollution cosmetic agent” (priority 2000, published 2004).

Experiments:
[1] = tested on: human keratinocytes; experiment: Covalent binding of 14C-benzo[a]pyrene to cell proteins (alkylation of nucleophiles); format: cell-based
Text: Polycyclic aromatic hydrocarbons (PAHs), adsorbed onto the surface of particles and dust conveyed by the urban atmosphere, can penetrate into skin tissue and be biotransformed therein. Their metabolism in the liver, which is well-described in the literature, leads to the formation of monohydroxylated metabolites (detoxification pathway), epoxides and diol epoxides (toxifying pathway). It follows the same profile in the skin. […] After consequent or repeated exposures to the pollutant, its potential toxicity can lead to a contact hypersensitivity in the case of the alkylation of proteins. […] The cells are inoculated on D-3 into 6-well dishes at a rate of 53 000 cells/cm^2. The incubations are performed at 37° C. in humid atmosphere enriched with 5% CO2. […] The covalent binding to cell proteins is measured according to the protocol of Hoellinger et al., adapted to a filtration method in 96-well microplates (H. Hoellinger, M. Sonnier, J. Gray, T. A. Connors, J. Pichon and N. H. Nam. In vitro covalent binding of […], bioresmethrin and their common alcohol to hepatic proteins. Toxicol. Appl. Pharmacol., 1985, 77, 11-18). […] The aim of this series of washes is to remove from the proteins any radioactivity not covalently bound. […] Samples are then taken to assay the proteins and count the radioactivity of the solution. The results are expressed as nmol of B[a]P bound per mg of proteins.

[2] = tested on: human keratinocytes
Experimental: The study was performed on a monolayer culture of human keratinocytes obtained from plastic surgeries. The cells are inoculated on D-3 into 96-well dishes at a rate of 25 000 cells/cm^2 in 100 μl of culture medium. The incubations are performed at 37° C. in a humid atmosphere enriched with 5% CO2.
Initially, the cells are treated for 24 hours with increasing concentrations (0, 10, 25, 50, 75, 100, 150 and 200 μM) of cadmium chloride (CdCl2), so as to determine its cytotoxicity. […]
At the end of the treatment, the cell viability is determined by means of the neutral red incorporation test (POS 55/006) and reading at 550 nm (ref: Borenfreund, E and Puerner, J. A. (1984) A simple quantitative procedure using monolayer cultures for cytotoxicity assays. Tissue Culture Methods; 9: 7-9).
The cells are rinsed with PBS buffer in order to remove the treatment solutions, and are then incubated for three hours at 37° C. in a neutral red solution (100 μl) prepared to a concentration of 0.5 mg/ml in the culture medium. […] The amount extracted is determined by reading the optical density on a spectrophotometer at 550 nm.
The concentration of CdCl2 that induces a 50% drop in the cell viability (IC-50) is then calculated.

[3] = tested on: human keratinocytes; experiment: Protection against the effects of ozone: ozone-induced lipid hydroperoxides (DCFH-DA fluorescence); format: cell-based; settings: ellagic acid 200 μM; for % fluorescence observed ± SEM, relative to the unprotected controls: ozone 10 ppm
Experimental: Ozone has the capacity to oxidize cell constituents, especially generating carbonylated proteins and lipid hydroperoxides. Quantification of the lipid hydroperoxides is one means of measuring the oxidative stress induced by an exposure of skin tissue to this pollutant. A decrease in their content indicates a protective effect of ellagic acid. […] The incubations are performed at 37° C., 5% CO2 in humid atmosphere. […] Hydroperoxides constitute an intracellular stress marker. They are detected and quantified by means of a fluorescence technique (Lebel C. P., Ischiropoulos H. and Bondy S. C. […] Chem. Res. Toxicol.: 5: 227-231). […] The cells, pretreated for 24 hours with ellagic acid, are then washed with phosphate-buffered saline (PBS) and placed in contact for 30 minutes with a solution of DCFH-DA (500 μl/well), prepared in the culture medium to a concentration of 320 μM. […] They are then exposed to ozone (10 ppm), in a humid atmosphere, in an incubator set at 37° C. The formation of fluorescent DCF (excitation screen at 485 nm and emission screen at 530 nm) resulting from the production of hydroperoxides is measured after different times of exposure to ozone: 0, 5, 10 and 20 minutes. […] For each time, the fluorescence values of the unprotected controls are set at 100%. The resulting values in the presence of ellagic acid are then expressed relative to this control value. […] This protection is at a maximum from 5 minutes of exposure onward (71.8% drop in induced stress). It is still significant after 20 minutes of exposure (47.7% drop in induced stress).

c1ccc2c(c1)cc1ccc3cccc4ccc2c1c34 [B (a) P, benzo(a)pyrene, reference compound]
covalent binding to keratinocyte proteins ([1]; benzo(a)pyrene alone at 20 μM): 0.28 nmol of B(a)P per mg of protein

[Cl][Cd][Cl] [cadmium chloride, reference compound]
IC50 ([2]; read-out: IC-50 of cadmium chloride, Mean ± SEM, without ellagic acid, 24 hours, n=4): 39 µM

O=c1oc2c(O)c(O)cc3c(=O)oc4c(O)c(O)cc1c4c23 [ellagic acid, 2,3,7,8-tetrahydroxy-(1)benzopyrano(5,4,3-cde)(1)benzopyran-5,10-dione]
drop in induced stress ([3]; 5 minutes of exposure to ozone): 71.8%
drop in induced stress ([3]; 20 minutes of exposure to ozone): 47.7%
% fluorescence observed ± SEM, relative to the unprotected controls ([3]; 5 min. of contact): 28.2 ± 3.3%
% fluorescence observed ± SEM, relative to the unprotected controls ([3]; 10 min. of contact): 36.3 ± 3.4%
% fluorescence observed ± SEM, relative to the unprotected controls ([3]; 20 min. of contact): 52.3 ± 4.4%
reduction in the reactivity of B(a)P by a factor ([1]; in the presence of ellagic acid 100 μM): 3.1
maximum dose of ellagic acid noncytotoxic to the cells ([2]; human, 24 h): 200 µM
